The values below come from ChEMBL document CHEMBL1806472, “Nobiletin metabolites: synthesis and inhibitory activity against matrix metalloproteinase-9 production” (Bioorg Med Chem Lett, 2011).

Experiment [1] is described as follows: Inhibition of PMA-induced proMMP9 production in human SRA 01/04 cells after 24 hrs by SDS-PAGE analysis. The format is functional, cell-based.
The nature of experiment [2]: Inhibition of TNF-alpha-induced proMMP9 production in human SRA 01/04 cells after 24 hrs by SDS-PAGE analysis. Type of experiment: functional, cell-based.

Broadly, the IC50 is the concentration at which inhibition is half-maximal. Read a low IC50 as greater potency. In the case of `COc1cc(-c2cc(=O)c3c(OC)c(OC)c(OC)c(OC)c3o2)ccc1O`, the figures for the IC50 in experiment [1] and in experiment [2] were 3.7 µM and 5.5 µM, respectively.
For the molecule `COc1ccc(-c2cc(=O)c3c(OC)c(OC)c(OC)c(OC)c3o2)cc1O`, the IC50 in experiment [1] came to 16.9 µM; in experiment [2], 16.4 µM.
Regarding `COc1c(OC)c(OC)c2c(=O)cc(-c3ccc(O)c(O)c3)oc2c1OC`, the IC50 in experiment [1] was 12.3 µM; in experiment [2] it was 10.8 µM.
`COc1ccc(-c2cc(=O)c3c(OC)c(OC)c(OC)c(OC)c3o2)cc1OC` [NOBILETIN]: the IC50 in experiment [1] turned out to be 20.9 µM; in experiment [2] it was 17 µM.
